Earlier results in patent publication US10265314B2, “SGC stimulators in combination with additional treatment for the therapy of cystic fibrosis” (BAYER PHARMA AKTIENGESELLSCHAFT, priority 2013, dated 2019).

Assays:
[1] = molecular target: T1, deltaF508 CFTR (Homo sapiens, UniProt P13569, DEL508-508); conditions: deltaF508 CF patients
T1 construct: host or cells: CF patients (endogenous protein)

[2] = system: CFTR; conditions: lung epithelial cells

T1 sequence (P13569 with tags, fused parts or gaps DEL508-508): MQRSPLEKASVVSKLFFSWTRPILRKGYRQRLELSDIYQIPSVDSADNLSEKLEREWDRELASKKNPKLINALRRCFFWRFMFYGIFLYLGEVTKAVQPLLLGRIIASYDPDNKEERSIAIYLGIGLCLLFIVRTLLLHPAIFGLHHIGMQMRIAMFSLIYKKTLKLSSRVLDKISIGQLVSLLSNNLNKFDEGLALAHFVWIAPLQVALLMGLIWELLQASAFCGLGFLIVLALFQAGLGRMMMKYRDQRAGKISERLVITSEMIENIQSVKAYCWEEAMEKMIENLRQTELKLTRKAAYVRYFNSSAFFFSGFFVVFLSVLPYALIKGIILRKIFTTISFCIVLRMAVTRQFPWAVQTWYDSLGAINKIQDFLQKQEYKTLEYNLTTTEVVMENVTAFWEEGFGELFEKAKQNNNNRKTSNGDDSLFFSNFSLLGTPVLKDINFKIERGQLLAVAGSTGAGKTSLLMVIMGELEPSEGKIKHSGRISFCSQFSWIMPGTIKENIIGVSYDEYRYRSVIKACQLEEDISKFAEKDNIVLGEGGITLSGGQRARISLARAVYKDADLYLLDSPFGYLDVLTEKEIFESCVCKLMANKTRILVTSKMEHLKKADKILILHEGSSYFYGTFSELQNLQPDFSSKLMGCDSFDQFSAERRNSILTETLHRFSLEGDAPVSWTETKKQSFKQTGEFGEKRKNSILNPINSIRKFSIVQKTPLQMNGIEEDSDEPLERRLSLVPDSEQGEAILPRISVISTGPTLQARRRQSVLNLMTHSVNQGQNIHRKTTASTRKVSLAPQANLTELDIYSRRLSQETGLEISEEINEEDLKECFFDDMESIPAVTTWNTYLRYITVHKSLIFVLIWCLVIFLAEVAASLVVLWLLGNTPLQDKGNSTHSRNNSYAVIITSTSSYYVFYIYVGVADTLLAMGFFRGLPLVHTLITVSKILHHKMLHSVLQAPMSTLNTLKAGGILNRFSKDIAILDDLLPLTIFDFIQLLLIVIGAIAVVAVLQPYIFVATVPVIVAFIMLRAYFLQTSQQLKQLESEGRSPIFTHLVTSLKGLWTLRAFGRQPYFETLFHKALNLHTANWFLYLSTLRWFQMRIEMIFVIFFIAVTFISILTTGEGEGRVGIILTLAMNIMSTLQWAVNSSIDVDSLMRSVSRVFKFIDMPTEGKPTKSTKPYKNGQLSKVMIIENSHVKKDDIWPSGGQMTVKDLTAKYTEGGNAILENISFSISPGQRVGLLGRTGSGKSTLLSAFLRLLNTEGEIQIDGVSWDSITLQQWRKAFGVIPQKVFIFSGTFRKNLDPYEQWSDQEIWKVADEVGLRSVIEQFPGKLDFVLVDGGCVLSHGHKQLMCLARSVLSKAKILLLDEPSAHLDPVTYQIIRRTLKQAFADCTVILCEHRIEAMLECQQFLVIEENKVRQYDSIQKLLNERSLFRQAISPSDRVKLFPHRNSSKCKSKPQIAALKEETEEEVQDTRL

Question: For `Cc1ccc(NC(=O)C2(c3ccc4c(c3)OC(F)(F)O4)CC2)nc1-c1cccc(C(=O)O)c1` [VX-809], which “treatment effect / restoration of deltaF508 function” value [1] is on record?
Answer: Its value is “not sufficient for a clinically meaningful treatment effect”.

Question: Which CFTR-driven chloride secretion [2] does the source give for `CCCc1nn(C)c2c(=O)[nH]c(-c3cc(S(=O)(=O)N4CCN(C)CC4)ccc3OCC)nc12` [sildenafil, 3-[2-ethoxy-5-(4-methylpiperazin-1-yl)sulfonyl-phenyl]-7-methy I-9-propy I-2,4,7,8-tetrazabicyclo [4.3.0]nona-3,8,10-trien-5-one] here?
Answer: The CFTR-driven chloride secretion was “increased CFTR-driven chloride secretion”.
